Data on 13 compounds can be found in the supplement of paper PMC11281043.

Details in all cases: exposure: 6-8 hpf to 5 dpf, scored at 6 dpf
In test [1] the test system is Danio rerio embryo/larva. Put plainly: max % larvae with pigmentation defects across tested concentrations; higher = more toxic.
Test [2] concerns Danio rerio embryo/larva. Put plainly: max % larvae with edema across tested concentrations; higher = more toxic; extreme values may be limits of the assay.
The test system of test [3] is Danio rerio embryo/larva. The test is described as follows: max % larvae with tail defects across tested concentrations; higher = more toxic; extreme values may be limits of the assay.
Test [4] has as its system Danio rerio embryo/larva. The test is described as follows: max % larvae with blood pooling across tested concentrations; higher = more toxic; extreme values may be limits of the assay.
The test system of test [5] is Danio rerio embryo/larva. Put plainly: max % larvae with spinal defects across tested concentrations; higher = more toxic; extreme values may be limits of the assay.
Test [6] deals with Danio rerio embryo/larva. The test is described as follows: max % larvae with abnormal position across tested concentrations; higher = more toxic; extreme values may be limits of the assay.
Test [7] has as its system Danio rerio embryo/larva. Put plainly: max % larvae with craniofacial defects across tested concentrations; higher = more toxic; extreme values may be limits of the assay.
Test [8] relates to Danio rerio embryo/larva. The test is described as follows: max % larvae with uninflated swim bladder across tested concentrations; higher = more toxic; extreme values may be limits of the assay.
The test system of test [9] is Danio rerio embryo/larva. The test is described as follows: max % larvae unhatched across tested concentrations; max tested concentration (log10 uM): 2; higher = more toxic.
Test [10] relates to Danio rerio embryo/larva. Put plainly: max % larvae with any abnormality across tested concentrations; max tested concentration (log10 uM): 2; higher = more toxic; extreme values may be limits of the assay.

As for `O=S(=O)(O)C(F)(F)C(F)(F)C(F)(F)C(F)(F)C(F)(F)C(F)(F)C(F)(F)C(F)(F)F` [Potassium perfluorooctanesulfonate] (max tested concentration (log10 uM): 2), the max % larvae amounted to 0% in test [1]; 100% in test [2]; 100% in test [3]; 33.3% in test [4]; 50% in [5]; 50% in test [6]. Besides, the max % larvae in test [7] and in [8] was 100% each time.
For `FC(F)C(F)(F)COCC1CO1` (stereo unspecified) [((2,2,3,3-Tetrafluoropropoxy)methyl)oxirane] (max tested concentration (log10 uM): 2), the max % larvae in [1] worked out at 0%; in [2] it was 31.2%; in [3], 0%; in [4], 0%; in [5] it was 0%; in test [6], 8.33%. For the same compound, the figures for the max % larvae in test [7] and in test [8] were 16.7% and 91.7%, respectively.
Consider `OCC(F)(F)C(F)(F)C(F)(F)C(F)(F)C(F)(F)C(F)(F)F` [6:1 Fluorotelomer alcohol] (max tested concentration (log10 uM): 2), for which the max % larvae turned out to be 0% in test [1]; 25% in test [2]; 12.5% in [3]; 16.7% in test [4]; 12.5% in [5]; 4.17% in test [6]. For the same compound, the max % larvae in test [7] and in test [8] was 25% in each case.
`OCC(F)(F)OC(F)(F)C(F)(F)OC(F)(F)C(F)(F)OC(F)(F)CO` [1H,1H,11H,11H-Perfluorotetraethylene glycol]: the “max % larvae unhatched across tested concentrations” value in [9] was 0%. The max % larvae in test [10] was 100%.
With `FC(F)(F)C(F)(F)CNCC(F)(F)C(F)(F)F` [Bis(1H,1H-perfluoropropyl)amine] (max tested concentration (log10 uM): 2), the max % larvae in [1], in test [3], in test [4], in [5], in test [6] and in test [7] was 0% throughout. The compound also showed a max % larvae in test [8] of 16.7%.
With `O=S(=O)(OCC(F)(F)F)C(F)(F)C(F)(F)C(F)(F)C(F)(F)F` [2,2,2-Trifluoroethyl perfluorobutanesulfonate] (max tested concentration (log10 uM): 2), the max % larvae in test [1] amounted to 0%; in test [2], 54.5%; in test [3] it was 4.55%; in test [4], 31.8%; in test [5], 0%; in [6], 11.4%. Besides, the figures for the max % larvae in test [7] and in test [8] were 9.09% and 90.9%, respectively.
With `Cc1ccc(S(=O)(=O)OCC(F)(F)C(F)(F)C(F)(F)C(F)(F)C(F)(F)C(F)F)cc1` [1H,1H,7H-Perfluoroheptyl 4-methylbenzenesulfonate] (max tested concentration (log10 uM): 2), the max % larvae in test [1] was 0%; in [2], 16.7%; in test [3], 0%; in [4] it was 0%; in [5], 4.17%; in test [6], 4.17%. Further, the max % larvae was found to be 16.7% in [7] and 75% in [8].
Regarding `O=C(O)C(F)(F)C(F)(F)C(F)(F)C(F)(F)C(F)(F)C(F)(F)C(F)(F)F` [Potassium perfluorooctanoate] (max tested concentration (log10 uM): 2), the max % larvae came out at 0% in [1]; 9.09% in [2]; 2.27% in test [3]; 9.09% in [4]; 0% in [5]; 2.27% in [6]. Further, the max % larvae in test [7] and in test [8] was 9.09% each time.
Turning to `O=C(O)C(F)(F)C(F)(F)C(F)(F)C(F)(F)C(F)(F)C(F)(F)C(F)(F)F` [Ammonium perfluorooctanoate], in [9], the “max % larvae unhatched across tested concentrations” value was found to be 0%. Moreover, the max % larvae in [10] came to 16.7%.
For the compound `FC(F)(F)C(F)(F)C(F)(F)C(F)(F)C(F)(F)C(F)(F)C(F)(F)I` [1-Iodopentadecafluoroheptane] (max tested concentration (log10 uM): 2), the max % larvae amounted to 0% in [1]; 30% in test [2]; 0% in test [3]; 16.7% in [4]; 8.33% in [5]; 10.4% in test [6]. For the same compound, the max % larvae in test [7] turned out to be 10%; in [8], 80%.
As to `O=C(O)C=C(C(F)(F)F)C(F)(F)F` [3,3-Bis(trifluoromethyl)-2-propenoic acid] (max tested concentration (log10 uM): 2), the max % larvae amounted to 0% in [1]; 2.08% in [2]; 0% in test [3]; 0% in test [4]; 0% in [5]; 0% in test [6]. Besides, the max % larvae in [7] and in [8] was 0% throughout.
Turning to `O=C(O)C(F)(F)C(F)(F)C(F)(F)C(F)(F)C(F)(F)C(F)(F)C(F)(F)F` [Ammonium perfluorooctanoate] (max tested concentration (log10 uM): 2), the max % larvae in [1], in test [2], in test [3], in test [4], in test [5] and in [6] was 0% each time. Also, the max % larvae in test [7] amounted to 0%; in [8], 9.09%.
For `O=S(=O)(O)C(F)(F)C(F)(F)C(F)(F)C(F)(F)C(F)(F)C(F)(F)F` [Perfluorohexanesulfonic acid] (max tested concentration (log10 uM): 2), the max % larvae in test [1] stood at 0%; in test [2] it was 31.2%; in test [3] it was 0%; in [4], 25%; in test [5], 3.12%; in [6], 31.2%. Besides, the max % larvae stood at 50% in test [7] and 100% in test [8].
